Reference: patent US8926955B2, “Synthesis of polymer conjugates of indolocarbazole compounds” (priority 2008, dated 2015)

Columns and labels:
[1] = test system: guinea pig; experiment: Photosensitisation test in guinea pigs; type: in vivo
Experimental: The second phase of the study was an assessment of sensitisation, in which a total of 5 groups were treated as follows (Table 7):
The photosensitisation test was undertaken using 2 groups of 10 animals (cf. Table 7, groups 8 and 9) induced with the control item and the test item and 1 control group of 10 animals (cf. Table 7, group 7) induced with the selected vehicle (purified water). In an attempt to induce sensitisation, animals were intradermally injected with an emulsion of Freund's complete adjuvant. The test and control items, at 100% concentration, were applied topically over the area among the injection sites of FCA a total of 6 times over a 2 week period. Animals were exposed to both UVA (10 Joules/cm^2) and UVB (0.1 Joules/cm^2) radiation following dosing. Control group animals were treated in the same manner but the selected vehicle (purified water) was used in place of the test or control items. Approximately 2 weeks after the final induction exposure, all animals were challenged by topical application of both the vehicle and the test or control item at 20% and 50% concentrations, respectively. These concentrations were selected as they were considered non-irritant to the skin in association with ultraviolet irradiation on the basis of the results obtained at the photoirritation test. Animals of the 2 test groups and the control group were exposed to both UVA (10 Joules/cm^2) and UVB (0.1 Joule/cm^2) radiation following dosing. Additional sites on each animal were topically treated with both the vehicle and test or control items, but treatment was not followed by exposure to ultraviolet irradiation. Approximately 24, 48 and 72 hours after challenge exposure the treated sites were examined for evidence of reaction to treatment.
One group of 5 animals (cf. Table 7, group 11) was induced with this substance at a concentration of 15% in acetone. A control group of 3 animals (cf. Table 7, group 10) was treated in the same manner with the vehicle alone (acetone). A concentration of 10% of the reference item (Musk Ambrette) in acetone was selected for the challenge. […]

[2] = test system: guinea pig; experiment: Photoirritation test in guinea pigs; type: in vivo
Experimental: The potential of the test item 0.1% cream to cause photoallergic and/or photoirritant reactions following topical application to the skin, in association with exposure to ultraviolet light, was assessed using a guinea pig model.
In the first phase, an assessment of the photoirritant properties of the test item was performed in 6 groups of animals. These were used both to establish suitable concentrations of the test item for use in the sensitisation assay and to provide information on photo-induced irritation. Animals were treated as follows (Table 6):
The photoirritation test was undertaken using 2 (irradiated) groups, each of 5 animals, treated with the control and test items, cream placebo and test item 0.1% cream, respectively (cf. Table 6, groups 1 and 3) and 2 similarly constituted groups (cf. Table 6, groups 2 and 4), treated in the same manner but not irradiated. Aliquots of the undiluted test or control item (100%), 2 concentrations (20% and 50% in purified water) of the test and control items and the vehicle alone (purified water), were spread evenly over defined skin sites prepared on the dorsum of the animals. Animals of the irradiated groups (groups 1 and 3) were exposed to both UVA (10 Joules/cm^2) and UVB (0.1 Joules/cm^2) radiation following dosing. […]

[3] = test system: Chinese hamster ovary cells; experiment: Chromosome aberrations in Chinese hamster ovary cells in vitro (photomutagenicity assay); details: 3 hours treatment, absence or presence of ultraviolet light
Experimental: The test item was assayed for the ability to cause chromosomal damage in Chinese hamster ovary cells, following in vitro treatment in the absence and presence of UVA/UVB irradiation.
Solutions of the test item were prepared in Hank's Balanced Salt Solution (HBSS).
Both in the absence and presence of UV light, the cells were treated for 3 hours and the harvest time of 20 hours, corresponding to approximately 1.5 cell cycle, was used.
The experiment included appropriate negative and positive controls. Two cell cultures were prepared at each test point.
Dose levels were selected for the scoring of chromosomal aberrations on the basis of the cytotoxicity of the test item treatments as determined by the reduction of cell counts at the time of harvesting.
One hundred metaphase spreads were scored for chromosomal aberrations from each culture.

[4] = test system: Balb/c 3T3 cells; type: cell-based; details: mouse
Experimental: The potential in vitro phototoxicity of the test item was evaluated by the measurements of neutral red uptake for cellular toxicity on cultures of Balb/c 3T3 cells treated with different doses of the test item and exposed to UVA irradiation. Test item solutions were prepared using Earle's Balanced Salt Solution (EBSS).
A preliminary dose-range finding experiment in the presence (+UVA) and in the absence (−UVA) of light was undertaken in order to select appropriate dose levels for the main assays. The test item was assayed at a maximum dose level of 1000 μg/ml (the upper limit indicated in the study protocol) and at a wide range of lower dose levels: 500, 250, 125, 62.5, 31.3, 15.6 and 7.81 μg/ml. […] In this case the chemical is considered to be non-phototoxic. The same dose range was used for the main assay.
A main experiment was performed using the following dose levels: 1000, 500, 250, 125, 62.5, 31.3, 15.6 and 7.81 μg/ml.

With `COc1c(C(C)(C)C)cc([N+](=O)[O-])c(C)c1[N+](=O)[O-]` [Musk Ambrette] the response at challenge ([1]; group 10, induced with the vehicle) was “No response to the reference item was observed”, the “animals responding at challenge (very slight to slight erythema)” value ([1]; group 11 (induced at 15% in acetone), challenge at 10% followed by UV irradiation) was 4/5 and the response at challenge ([1]; group 11, sites treated but not irradiated) was “No response to the reference item was observed”.

For `COc1c2occc2cc2ccc(=O)oc12` [8-Methoxypsoralen], the skin reaction ([2]; exposed to ultraviolet light, concentrations 0.01% and 0.1%) was “well defined to moderate erythema and a slight oedema”, the skin reaction ([2]; without exposure to ultraviolet light) was “No response was seen” and the “cells bearing chromosomal aberrations (including or excluding gaps)” value [3] was “Statistically significant increases”.

With `CN(C)CCCN1c2ccccc2Sc2ccc(Cl)cc21` [Chlorpromazine, reference compound] the “Photo Irritation Factor (PIF)” value [4] was 21.9.
